Experimental data as given in ChEMBL document CHEMBL1146422, “Isolation and structure of the human cancer cell growth inhibitory cyclodepsipeptide dolastatin 16” (1997).
In brackets after ≈: the same amount, converted by molar mass. *1 amine or outer side, *2 acyl side, *3 side chain or, on linkers, in order; H or OH if unused. Where a SMILES comes first, the peptide text is derived from it. [ ]: non-standard residue; d: D form. X1 = CC(Cc1ccccc1)C(N[*:1])C(=O)[*:2]; X2 = CC(C)C(N[*:1])C(C)C(=O)[*:2]; dNMeV = CN[C@@H](C(=O)O)C(C)C; dHiv = CC(C)[C@@H](O)C(=O)O; Lac = C[C@H](O)C(=O)O

Experiments:
Format in all cases: functional
MDA-N = assay: Growth inhibition of human MDA-N cells
MDA-MB-435 = assay: Growth inhibition of human MDA-MB-435 cells
SF-295 = assay: Growth inhibition of human SF295 cells
SK-MEL-5 = assay: Growth inhibition of human SK-MEL-5 cells
MCF7 = assay: Growth inhibition of human MCF7 cells
KM-20L2 = assay: Growth inhibition of human KM20L2 cells
NCI-H460 = assay: Growth inhibition of human NCI-H460 cells

## CC(C)C1NC(=O)[C@@H]2CCCN2C(=O)C(C(C)Cc2ccccc2)NC(=O)[C@@H]2CCCN2C(=O)[C@@H](C(C)C)N(C)C(=O)[C@@H](C(C)C)OC(=O)[C@@H]2CCCN2C(=O)[C@H](C)OC(=O)C1C (some centres not stated) [DOLASTATIN 16] (cyclo([Lac]P[dHiv][dNMeV]P[X1]P[X2]))
MDA-N
  GI50: 0.0288 µM
MDA-MB-435
  GI50: 0.0347 µM
SF-295
  GI50: 5.2 ng/mL (≈ 5.92 nM)
SK-MEL-5
  GI50: 3.3 ng/mL (≈ 3.75 nM)
MCF7
  GI50: 0.0479 µM
KM-20L2
  GI50: 1.2 ng/mL (≈ 1.37 nM)
NCI-H460
  GI50: 0.96 ng/mL (≈ 1.09 nM)
